Data reported in ChEMBL document CHEMBL4477252, “Optimization of microtubule affinity regulating kinase (MARK) inhibitors with improved physical properties” (Bioorg Med Chem Lett, 2016).
Converted amounts (≈) assume the structure as drawn.

Columns and labels:
[1] = Oral bioavailability in Sprague-Dawley rat at 5 mL/kg administered through gastric gavage measured after 24 hrs by LC-MS/MS analysis; type: ADME, organism-based; details: in vivo
[2] = molecular target: MDR1 (ABCB1, P-glycoprotein) (Rattus norvegicus, UniProt P43245); experiment: Substrate activity at rat MDR1 expressed in LLC-PK1 cells assessed as efflux ratio of permeability across basolateral to apical over apical to basolateral side at 5 uM; type: ADME, cell-based
Sequence of MDR1 (ABCB1, P-glycoprotein) (P43245 whole entry): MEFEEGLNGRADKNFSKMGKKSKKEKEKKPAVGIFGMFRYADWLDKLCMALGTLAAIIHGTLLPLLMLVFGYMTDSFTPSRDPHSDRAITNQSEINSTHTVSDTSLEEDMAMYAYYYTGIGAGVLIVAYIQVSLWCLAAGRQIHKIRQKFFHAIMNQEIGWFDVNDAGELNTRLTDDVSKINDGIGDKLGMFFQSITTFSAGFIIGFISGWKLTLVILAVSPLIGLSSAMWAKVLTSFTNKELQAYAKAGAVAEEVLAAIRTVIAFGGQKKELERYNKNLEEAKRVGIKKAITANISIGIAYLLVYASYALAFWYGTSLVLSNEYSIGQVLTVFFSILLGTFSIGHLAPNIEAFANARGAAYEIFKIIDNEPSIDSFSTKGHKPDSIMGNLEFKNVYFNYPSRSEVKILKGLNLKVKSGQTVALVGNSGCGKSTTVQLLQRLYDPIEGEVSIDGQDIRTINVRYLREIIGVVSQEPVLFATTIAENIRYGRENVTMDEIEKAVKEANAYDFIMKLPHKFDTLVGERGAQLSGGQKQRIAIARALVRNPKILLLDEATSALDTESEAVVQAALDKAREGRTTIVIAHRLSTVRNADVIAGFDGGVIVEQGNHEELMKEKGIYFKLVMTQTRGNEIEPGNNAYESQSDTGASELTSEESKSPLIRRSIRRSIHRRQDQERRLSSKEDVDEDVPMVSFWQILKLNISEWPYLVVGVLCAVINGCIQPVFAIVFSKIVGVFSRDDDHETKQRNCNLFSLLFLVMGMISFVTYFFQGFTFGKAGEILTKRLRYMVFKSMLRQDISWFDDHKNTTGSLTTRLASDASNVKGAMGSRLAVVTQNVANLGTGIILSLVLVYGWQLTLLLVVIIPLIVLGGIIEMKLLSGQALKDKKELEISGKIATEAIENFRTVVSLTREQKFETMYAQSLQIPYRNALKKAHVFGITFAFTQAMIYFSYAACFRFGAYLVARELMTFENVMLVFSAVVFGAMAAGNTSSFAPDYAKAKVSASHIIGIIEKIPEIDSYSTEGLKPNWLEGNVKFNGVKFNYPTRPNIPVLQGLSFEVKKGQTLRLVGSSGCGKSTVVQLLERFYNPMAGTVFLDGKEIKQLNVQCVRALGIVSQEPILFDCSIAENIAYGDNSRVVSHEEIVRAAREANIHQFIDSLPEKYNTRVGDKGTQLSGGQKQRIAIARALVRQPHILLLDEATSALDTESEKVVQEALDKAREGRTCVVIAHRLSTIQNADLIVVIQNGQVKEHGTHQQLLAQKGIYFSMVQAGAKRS

[3] = molecular target: Cyclin-dependent kinase 7 (Homo sapiens, UniProt P50613); experiment: Inhibition of full-length recombinant human His-tagged CDK7 expressed in baculovirus expression system by Adapta assay
Sequence of Cyclin-dependent kinase 7 (P50613 whole entry): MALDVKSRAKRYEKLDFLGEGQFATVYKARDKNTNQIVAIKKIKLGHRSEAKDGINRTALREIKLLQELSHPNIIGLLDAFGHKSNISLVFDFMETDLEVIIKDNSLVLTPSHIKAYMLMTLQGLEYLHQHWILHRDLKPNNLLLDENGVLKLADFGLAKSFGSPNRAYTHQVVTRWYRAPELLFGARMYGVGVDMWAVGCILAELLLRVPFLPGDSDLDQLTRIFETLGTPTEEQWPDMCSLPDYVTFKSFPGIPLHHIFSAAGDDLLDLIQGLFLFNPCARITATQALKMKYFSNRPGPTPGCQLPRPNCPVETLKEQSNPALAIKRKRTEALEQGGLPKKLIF

[4] = molecular target: Serine/threonine-protein kinase Chk2 (Homo sapiens, UniProt O96017); experiment: Inhibition of full-length recombinant human His-tagged CHEK2 expressed in baculovirus expression system by Z'-LYTE assay
Sequence of Serine/threonine-protein kinase Chk2 (O96017 whole entry): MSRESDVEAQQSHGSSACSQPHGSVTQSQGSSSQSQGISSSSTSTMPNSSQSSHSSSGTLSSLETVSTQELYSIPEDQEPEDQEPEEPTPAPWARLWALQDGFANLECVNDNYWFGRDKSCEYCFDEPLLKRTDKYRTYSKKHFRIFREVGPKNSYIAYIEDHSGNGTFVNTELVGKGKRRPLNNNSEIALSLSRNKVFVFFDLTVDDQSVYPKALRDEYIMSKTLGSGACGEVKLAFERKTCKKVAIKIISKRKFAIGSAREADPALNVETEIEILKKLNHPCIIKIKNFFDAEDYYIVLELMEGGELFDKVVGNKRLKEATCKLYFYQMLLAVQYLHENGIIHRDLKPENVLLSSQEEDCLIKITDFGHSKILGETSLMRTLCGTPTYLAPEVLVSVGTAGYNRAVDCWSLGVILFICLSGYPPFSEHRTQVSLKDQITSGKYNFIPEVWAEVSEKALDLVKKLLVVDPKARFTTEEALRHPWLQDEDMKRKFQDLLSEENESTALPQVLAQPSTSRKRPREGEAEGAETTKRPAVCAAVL

[5] = molecular target: Casein kinase II subunit alpha (Homo sapiens, UniProt P68400); experiment: Inhibition of full-length recombinant human His-tagged CSNK2A1 expressed in baculovirus expression system by Z'-LYTE assay
Sequence of Casein kinase II subunit alpha (P68400 whole entry): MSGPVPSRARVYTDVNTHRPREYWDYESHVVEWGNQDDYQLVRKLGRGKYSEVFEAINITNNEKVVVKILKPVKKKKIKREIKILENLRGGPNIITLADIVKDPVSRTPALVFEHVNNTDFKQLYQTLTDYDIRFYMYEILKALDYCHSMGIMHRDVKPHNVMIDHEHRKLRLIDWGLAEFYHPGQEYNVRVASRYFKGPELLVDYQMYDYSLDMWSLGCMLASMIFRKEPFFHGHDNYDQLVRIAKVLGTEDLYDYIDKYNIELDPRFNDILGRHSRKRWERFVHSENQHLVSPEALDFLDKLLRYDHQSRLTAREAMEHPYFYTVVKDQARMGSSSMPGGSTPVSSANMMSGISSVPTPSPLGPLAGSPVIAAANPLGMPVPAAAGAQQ

[6] = molecular target: Glycogen synthase kinase-3 alpha (Homo sapiens, UniProt P49840); experiment: Inhibition of full-length human GST-tagged GSK3A expressed in baculovirus expression system by Z'-LYTE assay
Sequence of Glycogen synthase kinase-3 alpha (P49840 whole entry): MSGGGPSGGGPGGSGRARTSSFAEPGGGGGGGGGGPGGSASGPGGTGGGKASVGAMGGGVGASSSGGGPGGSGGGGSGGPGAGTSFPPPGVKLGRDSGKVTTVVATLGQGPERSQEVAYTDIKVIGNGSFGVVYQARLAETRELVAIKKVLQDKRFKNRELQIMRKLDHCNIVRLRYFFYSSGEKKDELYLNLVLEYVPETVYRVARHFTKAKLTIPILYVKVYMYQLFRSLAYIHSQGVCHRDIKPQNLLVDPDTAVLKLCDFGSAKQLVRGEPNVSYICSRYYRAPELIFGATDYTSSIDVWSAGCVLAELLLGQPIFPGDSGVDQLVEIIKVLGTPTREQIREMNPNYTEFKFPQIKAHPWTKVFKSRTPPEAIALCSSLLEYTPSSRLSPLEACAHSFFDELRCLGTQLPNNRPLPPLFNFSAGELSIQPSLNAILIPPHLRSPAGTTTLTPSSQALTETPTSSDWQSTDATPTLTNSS

[7] = molecular target: Serine/threonine-protein kinase pim-1 (Homo sapiens, UniProt P11309); experiment: Inhibition of full-length recombinant human His-tagged PIM1 expressed in baculovirus expression system by Z'-LYTE assay
Sequence of Serine/threonine-protein kinase pim-1 (P11309 whole entry): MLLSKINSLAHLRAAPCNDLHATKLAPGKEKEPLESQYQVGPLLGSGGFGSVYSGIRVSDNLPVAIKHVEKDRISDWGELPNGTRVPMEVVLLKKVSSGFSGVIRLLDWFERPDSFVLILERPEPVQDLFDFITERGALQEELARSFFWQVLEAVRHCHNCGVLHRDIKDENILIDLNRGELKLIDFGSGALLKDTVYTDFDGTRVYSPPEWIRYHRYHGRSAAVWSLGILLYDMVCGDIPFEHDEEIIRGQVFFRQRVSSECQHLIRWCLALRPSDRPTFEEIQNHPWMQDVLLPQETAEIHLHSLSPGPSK

[8] = Inhibition of full-length recombinant human GST-tagged PKG2 expressed in baculovirus expression system by Z'-LYTE assay
[9] = molecular target: Serine/threonine-protein kinase N1 (Homo sapiens, UniProt Q16512); experiment: Inhibition of full-length recombinant human GST-tagged PKN1 expressed in baculovirus expression system by Z'-LYTE assay
Sequence of Serine/threonine-protein kinase N1 (Q16512 whole entry): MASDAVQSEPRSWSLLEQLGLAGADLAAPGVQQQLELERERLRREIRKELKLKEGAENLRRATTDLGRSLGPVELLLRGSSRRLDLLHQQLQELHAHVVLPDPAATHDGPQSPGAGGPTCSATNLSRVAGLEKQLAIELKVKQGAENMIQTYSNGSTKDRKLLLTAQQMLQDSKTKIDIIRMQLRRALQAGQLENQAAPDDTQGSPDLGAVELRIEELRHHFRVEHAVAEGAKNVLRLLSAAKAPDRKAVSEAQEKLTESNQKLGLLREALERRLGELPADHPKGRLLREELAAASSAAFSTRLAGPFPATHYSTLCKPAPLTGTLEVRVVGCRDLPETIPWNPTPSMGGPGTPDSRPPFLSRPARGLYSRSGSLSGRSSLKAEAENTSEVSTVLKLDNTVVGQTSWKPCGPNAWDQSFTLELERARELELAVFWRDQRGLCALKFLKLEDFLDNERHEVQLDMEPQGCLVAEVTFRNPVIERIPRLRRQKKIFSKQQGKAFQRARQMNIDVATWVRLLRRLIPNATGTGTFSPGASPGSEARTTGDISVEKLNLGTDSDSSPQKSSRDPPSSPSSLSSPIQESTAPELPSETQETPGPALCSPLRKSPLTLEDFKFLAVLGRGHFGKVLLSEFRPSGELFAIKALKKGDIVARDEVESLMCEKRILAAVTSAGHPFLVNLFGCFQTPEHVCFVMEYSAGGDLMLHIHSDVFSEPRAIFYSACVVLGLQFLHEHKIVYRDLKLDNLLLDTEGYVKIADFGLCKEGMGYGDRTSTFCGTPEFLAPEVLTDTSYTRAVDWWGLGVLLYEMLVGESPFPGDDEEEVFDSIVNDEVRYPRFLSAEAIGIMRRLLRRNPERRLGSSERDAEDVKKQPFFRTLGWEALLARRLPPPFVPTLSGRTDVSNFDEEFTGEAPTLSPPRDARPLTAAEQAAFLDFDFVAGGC

[10] = molecular target: T1, Serine/threonine-protein kinase TBK1 (Homo sapiens, UniProt Q9UHD2); experiment: Inhibition of full-length recombinant human GST-tagged TBK1 expressed in insect cells by Z'-LYTE assay
T1 sequence (Q9UHD2 whole entry): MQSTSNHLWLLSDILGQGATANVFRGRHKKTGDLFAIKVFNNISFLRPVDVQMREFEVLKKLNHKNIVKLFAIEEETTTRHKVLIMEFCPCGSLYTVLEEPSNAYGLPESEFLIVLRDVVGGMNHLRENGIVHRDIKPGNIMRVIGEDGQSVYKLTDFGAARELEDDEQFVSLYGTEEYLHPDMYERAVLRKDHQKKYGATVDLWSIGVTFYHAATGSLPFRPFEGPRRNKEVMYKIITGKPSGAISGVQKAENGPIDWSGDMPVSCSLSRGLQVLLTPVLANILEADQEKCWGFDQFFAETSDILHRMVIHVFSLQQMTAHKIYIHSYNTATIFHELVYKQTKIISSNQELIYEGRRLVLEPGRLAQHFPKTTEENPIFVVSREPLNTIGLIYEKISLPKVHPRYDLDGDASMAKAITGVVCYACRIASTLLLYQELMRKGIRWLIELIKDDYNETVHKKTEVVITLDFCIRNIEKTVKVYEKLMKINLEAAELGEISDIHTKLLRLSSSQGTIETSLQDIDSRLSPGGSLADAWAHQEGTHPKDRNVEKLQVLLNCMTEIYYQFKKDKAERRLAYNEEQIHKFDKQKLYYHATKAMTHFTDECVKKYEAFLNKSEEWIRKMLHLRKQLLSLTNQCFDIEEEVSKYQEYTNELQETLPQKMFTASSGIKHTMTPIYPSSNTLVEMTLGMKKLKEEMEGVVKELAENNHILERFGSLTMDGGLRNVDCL

[11] = Solubility of the compound at pH 2; type: physicochemical; details: buffer
[12] = Solubility of the compound at pH 7; type: physicochemical; details: buffer
[13] = Half life in Sprague-Dawley rat at 1 mL/kg, iv administered through catheter measured after 24 hrs by LC-MS/MS analysis; type: ADME, organism-based; details: in vivo
[14] = Clearance in Beagle dog at 0.5 mL/kg, iv administered through catheter measured after 24 hrs by LC-MS/MS analysis; type: ADME, organism-based, Canis lupus familiaris; details: in vivo
[15] = Volume of distribution in Beagle dog at 0.5 mL/kg, iv administered through catheter or 5 mL/kg, administered through gastric gavage measured after 24 hrs by LC-MS/MS analysis; type: ADME, organism-based, Canis lupus familiaris; details: in vivo
[16] = Half life in Beagle dog at 0.5 mL/kg, iv administered through catheter or 5 mL/kg, administered through gastric gavage measured after 24 hrs by LC-MS/MS analysis; type: ADME, organism-based, Canis lupus familiaris; details: in vivo

Work on Cn1cc(-c2cnc3c(-c4csc(C(=O)NCC(F)(F)F)c4)cnn3c2)cn1 yielded a bioavailability [1] of 53%, an efflux ratio at 5 µM [2] of 1.9 and an IC50 [3] of 53 nM. The IC50 [4] was 420 nM, the IC50 [5] was greater than 100000 nM and the IC50 [6] was 130 nM. The IC50 [7] was 9900 nM, the IC50 [8] was 480 nM and the IC50 [9] was 18000 nM. It also gave an IC50 [10] of less than 10 nM and a solubility [11] of less than 3 µM.
For Cc1sc(C(=O)N[C@@H]2[C@H](N)CCCC2(F)F)cc1-c1cnn2cc(Cl)cnc12, the solubility [12] was 114 µM (≈ 48.6 µg/mL), the half-life [13] was 42 min and the clearance [14] was 27 mL/min/kg. For the same compound, the Vd [15] was 2.3 L/kg, the half-life [16] was 60 min and the IC50 [3] was less than 10 nM. It also gave an IC50 [4] of 390 nM, an IC50 [5] greater than 100000 nM and an IC50 [6] of 110 nM. It also gave an IC50 [7] of 1600 nM, an IC50 [8] of 990 nM and an IC50 [9] of 17000 nM. For the same compound, the IC50 [10] was less than 10 nM and the solubility [11] was 206 µM (≈ 87.7 µg/mL).
In the case of O=C(NCC(F)(F)F)c1cc(-c2cnn3cc(-c4ccc(OCCN5CCCCC5)cc4)cnc23)cs1, the bioavailability [1] is reported as 46%, the IC50 [3] is reported as 30 nM and the IC50 [4] is reported as 450 nM. For the same compound, the IC50 [5] was 8300 nM, the IC50 [6] was 360 nM and the IC50 [7] was 590 nM. The IC50 [9] was 3900 nM and the IC50 [10] was less than 10 nM.
Compound Cn1cc(-c2cnc3c(-c4csc(C(=O)N[C@@H]5CCCC[C@@H]5N)c4)cnn3c2)cn1 (racemic) has an efflux ratio at 5 µM [2] of 54, a solubility [12] of 68 µM (≈ 28.7 µg/mL) and an IC50 [3] of 4.1 nM. The IC50 [4] was 24 nM, the IC50 [5] was greater than 10000 nM and the IC50 [6] was 42 nM. It also gave an IC50 [7] of 2800 nM, an IC50 [9] of 250 nM and an IC50 [10] of less than 1 nM.
